Test results reported in patent US20150011492A1, “ANTI-RESTENOSIS COMPOSITIONS AND METHODS” (WISCONSIN ALUMNI RESEARCH FOUNDATION, priority 2013, published 2015).
“Also recorded” adds a separate entry of the source.

Assays:
human SMCs = test: CellTiter-Glo luminescent cell viability assay, SMCs; assay type: cell-based; conditions: 200 nM
Experimental: Freshly collected HuAoSMCs (passage 5) were counted ([…]) by Cellometer AutoT4 (Nexelon Bioscience), and dispensed using Microflo Select (BioTek) to a final density of 2700 cells/[…]/well in the SmGM-2 medium in a 96-well plate. After a 24 hour incubation to allow cell attachment, […] of DMSO (vehicle) or […] of resveratrol (a known SMC growth inhibitor) stock in DMSO was robotically transferred using Biomek FX (Beckman) from a resveratrol stock plate into cell culture (final […] resveratrol). DMSO and resveratrol were added into alternate columns of wells (8 wells per column). Cell growth/proliferation was monitored by reading fluorescence from the AlamarBlue® cell viability reagent (Invitrogen). See Antczak et al., J. Biomol. […] After incubation with resveratrol for 72 hours, AlamarBlue reagent was added using Matrix Hydra (Thermo-Fisher) and incubated with cells for another 24 hours, and fluorescence was then determined using a Safir2 plate reader (Tecan, excitation/fluorescence: 530 nm/590 nm, bandwidth: 15 nm). The data from 40 wells of vehicle and 40 wells of resveratrol treatments were analyzed for assessment of well-well consistency in the assay. […] It was determined that reading Alamar Blue fluorescence 24 hours after incubation reduced variance compared to reading after shorter incubation (e.g., 4 hours). […]

human ECs = test: CellTiter-Glo luminescent cell viability assay, ECs; assay type: cell-based; conditions: 200 nM
Source text: For human SMCs, cell densities ranging from about 1,000 cells per well to about 5,000 cells per well were aliquoted into 96-well plates and cultured in the SmGM-2 medium (Lonza CC-3182) with 5% serum.
This robust well-to-well consistency achieved by our experimental system is better reflected by a Z′ value of 0.63. […] See, e.g., Tomasini-Johansson et al., J. Intl. Soc. Matrix Biol. (2012); Zhang et al., J. Biomol. Screening 4:67-73 (1999); Patel et al., PloS One 7:e36594 (2012). In parallel experiments, a CellTiter-Glo® luminescent cell viability assay (Cat. #7570, Promega), which quantifies ATP levels in cell lysates, was evaluated as an additional and more sensitive orthologous assay for cell number. Sachsenmeier et al., PLoS One 17:993-8 (2012). Using the CellTiter-Glo® assay, Rapamycin which is used in drug-eluting stents at 200 nM produced >50% inhibition of both human SMCs and ECs with Z′ values of 0.56 to 0.75 respectively (FIG. 2). In addition, CellTiter-Glo® assays using resveratrol for both SMCs and ECs also produced high Z′ values (>0.7) (data not shown). Curve fitting was performed with the Prism software (GraphPad).

[1] = tested on: balloon-injured rat carotid arteries; test: Rat carotid balloon angioplasty model, perivascular drug delivery in pluronic gel; assay type: in vivo, Male Sprague-Dawley rats
Experimental: Balloon injury of the left common carotid artery was performed in Male Sprague-Dawley rats (300-350 g) according to the method described previously (Kundi et al., Cardiovasc Res. 84(2):326-35 (2009). Briefly, after induction of anesthesia with isoflurane, a 2F balloon catheter was inserted through the left external carotid artery into the common carotid and insufflated three times at 2 atm of pressure. The external carotid artery was then ligated, and blood flow was resumed through the common and internal carotid arteries. For perivascular drug delivery, resveratrol (500 μg) or halofuginone (30 μg) or DMSO dissolved in 200 μL of 25% F127 pluronic gel (Sigma-Aldrich) in PBS was evenly applied, immediately after reestablishment of flow, around the injured segment of the carotid artery (5 animals in each group). The pluronic gel is a biodegradable polymer that is soluble in water at 4° C. but becomes a gel when in contact with tissues at 37° C. (Ji et al., Circ. Res. 100:1579-88 (2007)). Rats were euthanized 14 days after injury, and the common carotid arteries were collected and fixed in 4% paraformaldehyde overnight for embedding in paraffin.
For morphometric analysis of intimal hyperplasia, ten evenly spaced sections through each injured carotid artery were stained using routine hematoxylin and eosin (H&E) and images were collected with light microscopy. Intimal and medial areas and circumference were determined by measuring the internal elastic lamina (IEE) and external elastic lamina (EEL) for each section using the ImageJ software (National Institutes of Health). Kundi et al., Cardiovasc. Res. 84:326-35 (2009); Kingston et al., Circulation 108:2819-25 (2003). The difference in intimal hyperplasia between the compound treatment group and the control group was analyzed with the Student t-test (P<0.05).
To mark endothelial cells, immunohistochemistry using an anti-CD31 antibody was performed on rat carotid sections based on our published methods. Suwanabol et al., Am J Physiol Heart Circ Physiol. 302:H2211-19 (2012); Kundi et al., Cardiovasc. Res. 84:326-35 (2009); Si et al., Arterioscler. Thromb. Vasc. Biol. 32:943-54 (2012). Briefly, the carotid sections were incubated with the anti-CD31 antibody (Santa Cruz Biotechnology) overnight at 4° C., followed by rhodamine-conjugated secondary antibody (DAKO) for 60 minutes at room temperature. Antibody controls included species-matched IgG. Images were taken with a fluorescence microscope.
Balloon angioplasty was performed in the left common carotid artery of male Sprague-Dawley rats. Immediately after resuming the blood flow, idarubicin (110 μg) or DMSO control dissolved in 300 μL of 25% F127 pluronic gel was applied around the injured artery. At 14 days after injury, arteries were collected and cross-sections were prepared and H&E stained. Intimal and medial areas, and circumference were determined by measuring the internal elastic lamina (IEE) and external elastic lamina (EEL) for each section using the ImageJ software. The difference in intimal hyperplasia (ratio of intima to media) between the idarubicin treatment group and the control group was analyzed with the Student t-test (P<0.05). Immunostaining of CD31, an endothelial cell marker, was performed on the sections to assess re-endothelialization.
Using the carotid artery sections collected on day 14 following angioplasty, we performed immunostaining for CD31 (FIGS. 10A-C), a commonly used marker for assessment of the endothelium, in a rat carotid injury model at 14 days. Briefly, a goat anti-CD31 primary antibody (R&D Sytems, 1:150) was incubated with the sections for 1 hour followed by an incubation with a biotinylated rabbit-anti-goat secondary antibody for 30 minutes. Immunostaining of CD31 was then visualized by using streptavidin-HRP and DAB.

[2] = tested on: primary human aortic smooth muscle cells (HuAoSMCs); test: AlamarBlue cell viability assay of HuAoSMC proliferation (automated HTS); assay type: cell-based
Source text: Alamar Blue was purchased from Invitrogen (Carlsbad, Calif.). Cell Titer Glo was from Promega (Madison, Wis.). Primary human aortic smooth muscle cells (HuAoSMCs) and primary human aortic endothelial cells (HuAoECs) at passage 3 were purchased from Lonza; their respective optimal culture media (SmGM-2 and EGM-2) were from the same commercial source. Cells were used at passage 5 after expansion. Trypsin/EDTA solution was from Clonetics (Walkersville, Md.); and DPBS was from Gibco (Invitrogen, Carlsbad, Calif.). Microtiter tissue 96-well culture plates with transparent flat-bottoms and black-walled sides were from Costar (Corning, N.Y.). Resveratrol and idarubicin were products of Sigma-Aldrich (St. Louis, Mo.). […]
Freshly collected HuAoSMCs (passage 5) were counted ([…]) by Cellometer AutoT4 (Nexelon Bioscience), and dispensed using Microflo Select (BioTek) to a final density of 2700 cells/[…]/well in the SmGM-2 medium in a 96-well plate. […] Cell growth/proliferation was monitored by reading fluorescence from the AlamarBlue® cell viability reagent (Invitrogen). […] After incubation with resveratrol for 72 hours, AlamarBlue reagent was added using Matrix Hydra (Thermo-Fisher) and incubated with cells for another 24 hours, and fluorescence was then determined using a Safir2 plate reader (Tecan, excitation/fluorescence: 530 nm/590 nm, bandwidth: 15 nm). […]

[3] = tested on: balloon-injured rat carotid arteries; test: Rat carotid balloon angioplasty model, perivascular drug delivery in pluronic gel; assay type: in vivo, Male Sprague-Dawley rats; remark: listed apart in the source
HuAoSMCs = test: Dose response proliferation assay, HuAoSMCs (96-well plate); assay type: cell-based, human
Experimental: FIGS. 5A-B present comparative dose responses of HuAoSMCs and HuAoECs for idarubicin (A) and resveratol (B).
Cryo-protected frozen HuAoSMCs and HuAoECs (Lonza, passage 3) were thawed and cultured in their respective media that are optimized for cell growth by the manufacturer. HuAoSMCs (“SMCs”) were grown in the SmGM-2 medium containing 5% FBS, and HuAoECs (“ECs”) in the EGM-2 medium containing 2% FBS in a humidified incubator at 37° C. with 5% CO2.

[4] = tested on: primary human aortic endothelial cells (HuAoECs); test: Counter-screen / dose response proliferation assay, HuAoECs
[5] = halofuginone 30 μg in 200 μL pluronic gel, 14 days
[6] = Example 5, local perivascular application, day 14 following angioplasty, 5 rats
[7] = idarubicin applied locally around injured artery, day 14
[8] = medium dose 0.5 mg/mL in pluronic gel
[9] = relative to controls not contacted to idarubicin formulation

In the case of CO[C@H]1C[C@@H]2CC[C@@H](C)[C@@](O)(O2)C(=O)C(=O)N2CCCC[C@H]2C(=O)O[C@H]([C@H](C)C[C@@H]2CC[C@@H](O)[C@H](OC)C2)CC(=O)[C@H](C)/C=C(\C)[C@@H](O)[C@@H](OC)C(=O)[C@H](C)C[C@H](C)/C=C/C=C/C=C/1C [Rapamycin], the inhibition at 0.2 µM (human SMCs) is reported as over 50% and the inhibition at 0.2 µM (human ECs) is reported as over 50%.

For O=C(CC1NCCCC1O)Cn1cnc2cc(Br)c(Cl)cc2c1=O (stereo not shown) [halofuginone], the “effect on intimal hyperplasia, in words” value [1, 5] was “inhibits intimal hyperplasia”, the “effect on re-endothelialization (CD31 staining), in words” value [1, 5] was “not re-endothelialization; also recorded: not affected” and the “reduction of intimal hyperplasia (intima/media ratio)” value ([1]; halofuginone 30 μg in 200 μL pluronic gel, periadventitial, 14 days after injury) was 74%. For the same compound, the “SMC growth in cell assays, in words” value [2] was “inhibit SMC growth”.

CC(=O)[C@]1(O)Cc2c(O)c3c(c(O)c2[C@@H](O[C@H]2C[C@H](N)[C@H](O)[C@H](C)O2)C1)C(=O)c1ccccc1C3=O [idarubicin, (7S,9S)-9-Acetyl-7-[(3-amino-2,3,6-trideoxy-α-L-lyxo-hexapyranosyl)oxy]-7,8,9,10-tetrahydro-6,9,11-trihydroxy-5,12-naphtacenedione] was tested, and the “increase of lumen size” value [1, 6] was 45%, the “reduction of intimal hyperplasia” value [1, 6] was 80% and the “effect on intimal hyperplasia (intima/media), in words” value [1, 7] was “effectively reduced; also recorded: inhibitory effect; also recorded: inhibits intimal hyperplasia in a dose-dependent manner”. For the same compound, the “effect on re-endothelialization (CD31 staining), in words” value [1, 7] was “not affected; also recorded: absence of idarubicin's effect; also recorded: preserves and promotes re-endothelialization; also recorded: no substantial impairment; also recorded: no significant effect”, the “reduction of intimal hyperplasia” value ([1]; local application, dose not stated at the place (Example 3)) was 70% and the “cytotoxicity in surrounding tissues” value ([3]; highest dose 1 mg/mL in pluronic gel) was “slight cytotoxicity”. For the same compound, the “cytotoxicity in surrounding tissues” value ([3]; lowest dose 0.2 mg/mL in pluronic gel) was “without showing cytotoxicity”, the “inhibition of intimal hyperplasia” value ([3]; lowest dose 0.2 mg/mL in pluronic gel (data not shown)) was over 70% and the “cytotoxicity in surrounding tissues” value [3, 8] was “without showing cytotoxicity”. For the same compound, the “inhibition of intimal hyperplasia” value [3, 8] was over 70%, the “SMC versus EC proliferation, dose response (in words)” value (HuAoSMCs; approximately 50 nM to 1000 nM) was “impedes SMC proliferation to a significantly greater extent than ECs; also recorded: differentially inhibited SMC proliferation with a lesser effect on ECs” and the “inhibition of smooth muscle cell proliferation” value (HuAoSMCs; [9]) was “up to 80%”. For the same compound, the “SMC versus EC preference in counter-screen of EC proliferation, in words” value ([4]; counter-screen) was “preferentially inhibits SMCs over ECs” and the “inhibition of endothelial cell proliferation” value [4, 9] was “less than 40%”.

In the case of Oc1ccc(C=Cc2cc(O)cc(O)c2)cc1 [resveratrol], the “inhibition of the intima/media ratio” value ([1]; resveratrol 500 μg in 200 μL pluronic gel, perivascular, 14 days after injury) is reported as 84% and the “SMC growth in cell assays, in words” value [2] is reported as “inhibit SMC growth”.
